Entries after “also recorded” stand apart in the source; their conditions may differ. Read-outs that look alike come from different tables or passages of the source.
Assays:
[1] = system: Notch signaling (LS174T Notch cells); assay: Notch signaling transcriptional activity assay (luciferase reporter, T-REx system); type: cell-based; conditions: for IC50: read-out: IC50 of Notch signal inhibitory activity (luciferase)
Text: We constructed a cell-based reporter assay with the T-Rex system to evaluate Notch signaling inhibitory activity. Without doxycycline (Dox), the tetracycline repressor (TetR) inhibits the expression of N-terminally FLAG-tagged mouse Notch1(1704–2531), which is 40 aa longer than NICD at the N-terminus. In the presence of Dox, Dox binds to the TetR to release the inhibition of expression of Notch1(1704–2531). Cleavage of Notch1(1704–2531) by γ-secretase generates NICD, which then translocates to the nucleus and forms a heterotrimer with RBP-J driving luciferase transcription (Fig. 2). This assay cells (LS174T Notch cells) was stably incorporated with pGL4.20 luciferase plasmid which has 12 × RBP-J binding site (12 copies of […])-β-globin promoter. Cell viability was measured using a fluorometric microculture cytotoxicity assay. […] The composition of the G. speciosa MeOH extract was partitioned successively with hexane, EtOAc, nBuOH, and water.
Figure 2 The T-REx assay system. Without Dox, expression of Notch1(1704–2531) is suppressed by TetR. The addition of Dox inactivates TetR to initiate expression of Notch1(1704–2531), which is then cleaved by endogenous γ-secretase to form NICD. NICD then translocates to the nucleus and forms a heterotrimer with RBP-J and MAML that binds to a 12× RBP-J binding site to drive luciferase expression. Luciferase activity was detected as Notch signaling pathway activity. Dox: doxycycline, TetR: tetracycline repressor, Luc.: luciferase.
Assay cells (LS174T Notch cells: 2 × 10^4 cells/well) were incubated in a 96-well white plate at 37 °C for 12 h. After incubation, 50 ng/mL Dox was added to each well to induce expression of exogenous Notch1(1704–2531) protein. After incubation at 37 °C for 12 h, the medium was changed to Dox-free medium containing individual samples. Luciferase activity was measured after treatment at 37 °C for 12 h. Cell viability was evaluated by the FMCA method at the same time. These assays were performed in 0.1% DMSO (n = 3). Error bars represent SD.
In a 96-well white plate, Cells (LS174T Notch cells; 2 × 10^4 cells per well) were cultured at 37 °C for 12 h. To express Notch1(1704–2531) protein in the cells, doxycycline (50 ng/mL) was added to each well, and cells were cultured at 37 °C for 12 h. Medium was changed to doxycycline-free medium containing each sample, then cells were incubated with at 37 °C for 12 h. A microplate luminometer (Thermo Fisher Scientific Inc., Waltham, USA) and the Bright-Glo™ Luciferase Assay System (Promega Co., Madison, USA) were used for measurement of Luciferase activity. Fluorometric Microculture Cytotoxicity Assay (FMCA) was used for measurement of cell viability of the sample-treated cells. After incubation of assay cells (2×10^4 cells per well) in a 96-well black plate at 37 °C for 24 h, samples addition was performed at the same time as the luciferase assay. The assay cells were cultures at 37 °C for 12 h. A fluorescence plate reader (Thermo Fisher Scientific Inc., Waltham, USA) was used for determination of cell viability by FMCA.

HPB-ALL cells = assay: Cytotoxicity test, AlamarBlue
Experimental: HPB-ALL cells (1 × 10^4 cells per well) were incubated in 96-well black plates at 37 °C for 72 h. Media also contained different concentrations of compound. After incubation, AlamarBlue was added 10 μL per well. After incubation for 4 h, using a fluorescence plate reader, fluorescence was measured and cell viability was determined. Data are presented as the mean with SD from three independent experiments. […] The effect on protein expression was analyzed by Western blotting. β-Actin was used as internal control. (D,E) Relative protein levels of NICD and HES1 analyzed by densitometry. Data are presented as the mean with SD from three independent experiments. *P < 0.05 is considered statistically significant. P values were analyzed by Student’s t test.
HPB-ALL cells (1 × 10^4 cells per well) were incubated in 96-well black plates in 100 μL of RPMI-1640 medium with 10% FBS, Streptomycin (100 μg/mL) and Penicillin (100 unit/mL). Media also contained different concentrations of compound. Cells were incubated at 37 °C for 72 h. After incubation, AlamarBlue (00–025, DAL1025; Thermo Fisher Scientific Inc., Waltham, USA) was added 10 μL per well. After incubation for 4 h, using a fluorescence plate reader (Thermo Fisher Scientific Inc., Waltham, USA), fluorescence was measured and cell viability was determined.

[2] = Homo sapiens, LS174T Notch cells, 12 h treatment after Dox induction
[3] = LS174T Notch cells, 12 h treatment after Dox induction

IC50 [1, 2] | Compound | IC50 of Notch signal inhibitory activity (luciferase) [1, 3] | also measured
> 40 µM | COc1cc2oc3cc(O)c(CC=C(C)C)c(O)c3c(=O)c2c(CC=C(C)C)c1O [Compound 8, 6-methoxy-γ-mangostin] | weak activity or were inactive | –
19.6 µM | COc1c(O)cc2oc3cc4c(c(O)c3c(=O)c2c1CC=C(C)C)C=CC(C)(C)O4 [Compound 9, 9-hydroxycalabaxanthone] | – | –
15 µM | COc1cc2oc3cc(O)c(CC=C(C)C)c(O)c3c(=O)c2c(CC=C(C)C)c1OC [Compound 10, cowaxanthone B] | – | –
11.7 µM | COc1c(O)cc2oc3cc4c(c(O)c3c(=O)c2c1C/C=C(\C)CCC=C(C)C)C=CC(C)(C)O4 [Compound 11, fuscaxanthone A] | – | –

Continued, compound first:

Compound | IC50 [1, 2] | IC50 of Notch signal inhibitory activity (luciferase) [1, 3] | also measured
COc1c(O)cc2oc3cc(O)c(CC=C(C)C)c(O)c3c(=O)c2c1CC=C(C)C [Compound 1, α-mangostin] | 8 µM | – | –
COc1c(O)cc2oc3cc(O)c(C/C=C(/C)CO)c(O)c3c(=O)c2c1C/C=C(\C)CCC=C(C)C [Compound 3, cowanol] | – | – | IC50 ([1]; Homo sapiens, LS174T, 12 h): 7.3 µM
CC(C)=CCC/C(C)=C/Cc1c(O)c(O)cc2oc3cc(O)c(CC=C(C)C)c(O)c3c(=O)c12 [Compound 4, norcowanin] | 10.5 µM | – | –
COc1c(O)cc2oc3cc(O)cc(O)c3c(=O)c2c1C/C=C(\C)CCC=C(C)C [Compound 5, rubraxanthone] | > 40 µM | weak activity or were inactive | –
COc1cc2c(=O)c3c(O)c(C/C=C(\C)CCC=C(C)C)c(O)cc3oc2cc1O [Compound 6, cowaxanthone] | – | weak activity or were inactive; also recorded: inactive | –
COc1cc2oc3cc(O)c(OC)c(CC=C(C)C)c3c(=O)c2c(O)c1CC=C(C)C [Compound 7, β-mangostin] | 7.5 µM | – | –
C=C(C)c1cc2c(O)c3c(=O)c4c(CC=C(C)C)c(OC)c(O)cc4oc3cc2o1 [Compound 12] | – | weak activity or were inactive; also recorded: inactive | –
C[C@H](NC(=O)Cc1cc(F)cc(F)c1)C(=O)N[C@H](C(=O)OC(C)(C)C)c1ccccc1 [DAPT, N-[N-(3,5-difluorophenacetyl)-L-alanyl]-S-phenylglycine t-butyl ester, reference compound] | – | – | IC50 (HPB-ALL cells): > 20 µM; IC50 [1, 3]: 0.12 µM

Reference: PMC5876388 (Scientific Reports, 2018)
